Our source for the IC50 values is BindingDB's records for patent US20250313563 (The Broad Institute, 2025).

Assay [1] concerns the target Glycogen synthase kinase-3 beta (Homo sapiens, UniProt P49841). In words: TR-FRET Assay. In outline:
(§1)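 TR-FRET readout: streptavidin-d2 (40 nM in added detection mix) plus Tb-anti-pSer641 Ab (2 nM in mix). Steps were 30 min compound preincubation, kinase reaction, then EDTA stop.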
(In general: In TR-FRET formats the signal depends on donor and acceptor labels being close together.)

Assay [2] addresses Glycogen synthase kinase-3 alpha (Homo sapiens, UniProt P49840). The experiment in a line: TR-FRET Assay. The method, boiled down: as §1

Several values for one entry are separate records, joined by “and”; a condition that tells them apart may be missing. Identical values can stand only once.

Glycogen synthase kinase-3 beta, sequence (P49841 whole entry): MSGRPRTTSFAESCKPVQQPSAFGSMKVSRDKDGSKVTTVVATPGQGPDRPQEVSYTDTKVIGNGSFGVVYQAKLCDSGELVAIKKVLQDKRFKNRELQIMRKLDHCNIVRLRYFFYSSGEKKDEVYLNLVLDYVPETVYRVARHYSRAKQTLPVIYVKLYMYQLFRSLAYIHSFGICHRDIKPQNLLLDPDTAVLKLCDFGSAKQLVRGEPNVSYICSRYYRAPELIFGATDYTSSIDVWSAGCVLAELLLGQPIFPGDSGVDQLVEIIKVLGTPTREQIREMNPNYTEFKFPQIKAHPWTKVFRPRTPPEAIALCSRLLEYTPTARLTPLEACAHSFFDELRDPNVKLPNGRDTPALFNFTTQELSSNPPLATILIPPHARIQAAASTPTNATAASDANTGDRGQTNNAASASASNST
Glycogen synthase kinase-3 alpha, sequence (P49840 whole entry): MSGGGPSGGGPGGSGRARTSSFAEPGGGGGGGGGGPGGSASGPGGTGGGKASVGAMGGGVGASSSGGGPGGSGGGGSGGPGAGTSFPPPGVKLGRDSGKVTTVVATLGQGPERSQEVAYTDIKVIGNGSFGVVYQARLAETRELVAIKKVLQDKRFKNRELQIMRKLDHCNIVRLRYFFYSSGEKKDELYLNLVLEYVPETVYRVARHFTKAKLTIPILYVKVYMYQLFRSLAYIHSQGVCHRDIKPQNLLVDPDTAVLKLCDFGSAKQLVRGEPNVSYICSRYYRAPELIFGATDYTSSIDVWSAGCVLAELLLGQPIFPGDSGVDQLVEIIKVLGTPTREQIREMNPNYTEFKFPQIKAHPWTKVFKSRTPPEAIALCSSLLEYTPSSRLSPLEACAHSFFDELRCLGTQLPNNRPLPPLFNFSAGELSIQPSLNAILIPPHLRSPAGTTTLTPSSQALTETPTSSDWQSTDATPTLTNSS

With `CCC1(c2cccc(N3CCOCC3)c2)C2=C(CC(C)(C)NC2=O)NC2N=NC(C)=C21` (stereo not given) [US20250313563, Compound 947564], the IC50 in assay [1] and in assay [2] was 100 to 1000 nM throughout.
On to `CCC1(c2cccc(-c3cncn3C)c2)C2=C(CC(C)(C)NC2=O)NC2N=NC(C)=C21` (stereo not given) [US20250313563, Compound 947565], for which the IC50 in assay [1] and in assay [2] was under 100 nM in each case.
`CCC1(c2cccc(N3CCCCC3)c2)C2=CN=NC2NC2=C1C(=O)NC(C)(C)C2` (stereo not given) [US20250313563, Compound 947566]: the IC50 in assay [1] and in assay [2] was 1000 to 5000 nM in each case.
For the molecule `CCC1(c2cccc(-c3cn(C)nc3C)c2)C2=C(CC(C)(C)NC2=O)NC2N=NC(C(F)(F)F)=C21` (stereo not given) [US20250313563, Compound 947567], the IC50 in assay [1] and in assay [2] was under 100 nM throughout.
As for `CCC1(c2cccc(-c3c(C)nn(C)c3C)c2)C2=C(CC(C)(C)NC2=O)NC2N=NC(C(F)(F)F)=C21` (stereo not given) [US20250313563, Compound 947568], the half-inhibitory concentration (IC50) in assay [1] and in assay [2] was under 100 nM each time.
With `CCC1(c2cccc(-c3ccncc3S(C)(=O)=O)c2)C2=CN=NC2NC2=C1C(=O)CC(C)(C)C2` (stereo not given) [US20250313563, Compound 947569], the IC50 in assay [1] and in assay [2] was under 100 nM throughout.
Regarding `CC[C@@]1(c2cccc(-c3cc[n+]([O-])cc3[S+](C)[O-])c2)C2=CN=NC2NC2=C1C(=O)CC(C)(C)C2` (stereo not given in full) [US20250313563, Compound 947570], the IC50 (in general, the concentration that gives 50% inhibition) in assay [1] was in the range of 1000 to 5000 nM; in assay [2], 100 to 1000 nM.
Regarding `CC[C@@]1(c2cccc(-c3cc[n+](O)cc3[S@@+](C)[O-])c2)C2=CN=NC2NC2=C1C(=O)CC(C)(C)C2` (stereo not given in full) [US20250313563, Compound 947571], the results for the IC50 in assay [1] and in assay [2] were 1000 to 5000 nM and 100 to 1000 nM, respectively.
For `CC[C@]1(c2cccc(-c3c(C)nn(C)c3C)c2)C2=C(CC(C)(C)NC2=O)NC2N=NC(C)=C21` (stereo not given in full) [US20250313563, Compound 947573] the same measures were 1000 to 5000 nM and 100 to 1000 nM.
For `CC[C@@]1(c2cccc(-c3ccncc3C)c2)C2=CN=NC2NC2=C1C(=O)NC(C)(C)C2` (stereo not given in full) [US20250313563, Compound 947574], the IC50 in assay [1] and in assay [2] was under 100 nM each time.
With `COCc1cccc(S(=O)(=O)N2CCC3(CC2)C2=C(N=NC2)NC2=C3C(=O)CC(C)(C)C2)c1` [US20250313563, Compound 947605], the IC50 in assay [1] and in assay [2] was under 100 nM in each case.
In the case of `Cn1nc(C(F)(F)F)cc1S(=O)(=O)N1CCC2(CC1)C1=C(N=NC1)NC1=C2C(=O)CC(C)(C)C1` [US20250313563, Compound 947606], the concentration for half-maximal inhibition (IC50) in assay [1] and in assay [2] was under 100 nM throughout.
Take `CC(C)n1cc(S(=O)(=O)N2CCC3(CC2)C2=C(N=NC2)NC2=C3C(=O)CC(C)(C)C2)cn1` [US20250313563, Compound 947607]: the IC50 in assay [1] and in assay [2] was under 100 nM in each case.
`Cc1cc(S(=O)(=O)N2CCC3(CC2)C2=C(N=NC2)NC2=C3C(=O)CC(C)(C)C2)n(C)n1` [US20250313563, Compound 947608]: the half-inhibitory concentration (IC50) in assay [1] and in assay [2] was under 100 nM each time.
For `CCn1nc(C)cc1S(=O)(=O)N1CCC2(CC1)C1=CN=NC1NC1=C2C(=O)CC(C)(C)C1` (stereo not given) [US20250313563, Compound 947609], the IC50 in assay [1] is 100 to 1000 nM; in assay [2], under 100 nM.
The corresponding values for `CC1(C)CC(=O)C2=C(C1)NC1=C(CN=N1)C21CCN(S(=O)(=O)c2cnc3ccccn23)CC1` [US20250313563, Compound 947610] are under 100 nM and under 100 nM.
As to `Cc1ncc(S(=O)(=O)N2CCC3(CC2)C2=C(N=NC2)NC2=C3C(=O)CC(C)(C)C2)o1` [US20250313563, Compound 947611], the IC50 in assay [1] is < 100 nM and 100 to 1000 nM; in assay [2], < 100 nM and 100 to 1000 nM.
`COc1ccc(S(=O)(=O)N2CCC3(CC2)C2=C(N=NC2)NC2=C3C(=O)CC(C)(C)C2)cc1Cl` [US20250313563, Compound 947612]: the IC50 in assay [1] and in assay [2] was under 100 nM in each case.
Take `CC1(C)CC(=O)C2=C(C1)NC1=C(CN=N1)C21CCN(S(=O)(=O)c2cccnc2)CC1` [US20250313563, Compound 947613]: the IC50 in assay [1] is < 100 nM and 1000 to 5000 nM; in assay [2], < 100 nM and 100 to 1000 nM.
Regarding `Cc1cnc2c(S(=O)(=O)N3CCC4(CC3)C3=C(N=NC3)NC3=C4C(=O)CC(C)(C)C3)cccc2c1` [US20250313563, Compound 947614], the IC50 in assay [1] and in assay [2] was under 100 nM throughout.
Consider `CC1(C)CC(=O)C2=C(C1)NC1=C(CN=N1)C21CCN(S(=O)(=O)c2cnn3ccccc23)CC1` [US20250313563, Compound 947615], for which the IC50 in assay [1] and in assay [2] was under 100 nM throughout.
Consider `Cc1cc(S(=O)(=O)N2CCC3(CC2)C2=C(N=NC2)NC2=C3C(=O)CC(C)(C)C2)cc(C)n1` [US20250313563, Compound 947616], for which the half-inhibitory concentration (IC50) was < 100 nM and 1000 to 5000 nM in assay [1]; < 100 nM and 100 to 1000 nM in assay [2].
Turning to `CC[C@]1(c2cccc(-c3cc(C)nn3C)c2)C2=CN=NC2NC2=C1C(=O)CC(C)(C)[C@@H]2F` (stereo not given in full) [US20250313563, Compound 947655], the IC50 in assay [1] was 100 to 1000 nM; in assay [2] it was under 100 nM.
For `CC[C@@]1(c2cccc(-c3cc(C)nn3C)c2)C2=CN=NC2NC2=C1C(=O)CC(C)(C)[C@H]2F` (stereo not given in full) [US20250313563, Compound 947656], the IC50 in assay [1] was over 5000 nM; in assay [2], 100 to 1000 nM.
Take `CC[C@@]1(c2cccc(-c3cc(C)nn3C)c2)C2=CN=NC2NC2=C1C(=O)CC(C)(C)[C@@H]2F` (stereo not given in full) [US20250313563, Compound 947657]: the values for the IC50 in assay [1] and in assay [2] were over 5000 nM and 100 to 1000 nM, respectively.
Turning to `CC[C@@]1(c2cccc(-c3c(C)cncc3C)c2)C2=CN=NC2NC2=C1C(=O)CC(C)(C)C2` (stereo not given in full) [US20250313563, Compound 947659], the results for the IC50 in assay [1] and in assay [2] were 100 to 1000 nM and under 100 nM, respectively.
For `CC[C@]1(c2cccc(Cc3ncccc3C(F)(F)F)c2)C2=CN=NC2NC2=C1C(=O)CC(C)(C)C2` (stereo not given in full) [US20250313563, Compound 947664] the same measures were 100 to 1000 nM and under 100 nM.
For the molecule `CC[C@@]1(c2cccc(Cc3ncccc3C(F)(F)F)c2)C2=CN=NC2NC2=C1C(=O)CC(C)(C)C2` (stereo not given in full) [US20250313563, Compound 947665], the IC50 in assay [1] was over 5000 nM; in assay [2], 1000 to 5000 nM.
For `CCC1(c2cccc(N3CCCC3)c2)C2=C(CC(C)(C)NC2=O)NC2N=NC(C)=C21` (stereo not given) [US20250313563, Compound 947673], the IC50 in assay [1] is 100 to 1000 nM; in assay [2], under 100 nM.
The corresponding values for `CCC1(c2cccc(N3CCCCC3)c2)C2=C(CC(C)(C)NC2=O)NC2N=NC(C)=C21` (stereo not given) [US20250313563, Compound 947674] are 100 to 1000 nM and under 100 nM.
For the molecule `CCC1(c2cccc(-c3ccnc4c3CCC4)c2)C2=C(CC(C)(C)NC2=O)NC2N=NC(C)=C21` (stereo not given) [US20250313563, Compound 947675], the IC50 is 100 to 1000 nM in assay [1] and under 100 nM in assay [2].
The corresponding values for `CCC1(c2cccc(-c3ccnc4c3CCC4)c2)C2=CN=NC2NC2=C1C(=O)NC(C)(C)C2` (stereo not given) [US20250313563, Compound 947676] are 100 to 1000 nM and under 100 nM.
As to `CCC1(c2cccc(C3=CN=NC3)c2)C2=C(CC(C)(C)NC2=O)NC2N=NC(C(F)(F)F)=C21` (stereo not given) [US20250313563, Compound 947677], the IC50 in assay [1] and in assay [2] was under 100 nM in each case.
For `CC1CC(C(=O)N2CC3(C2)C[C@]2(CO3)C3=C(N=NC3)NC3=C2C(=O)CC(C)(C)C3)C1` (stereo not given in full) [US20250313563, Compound 947732], the results for the IC50 in assay [1] and in assay [2] were 1000 to 5000 nM and 100 to 1000 nM, respectively.
For `CC1(C)CC(=O)C2=C(C1)NC1=C(CN=N1)[C@]21COC2(CN(C(=O)C3(F)CCC3)C2)C1` [US20250313563, Compound 947735] the same measures were under 100 nM and under 100 nM.
For `CCC1(c2cccc(C(F)(F)F)c2)C2=CN=NC2NC2=C1C(=O)N(c1ccc(F)cc1)CC2` (stereo not given) [US20250313563, Compound 947748], the IC50 was 100 to 1000 nM in assay [1] and under 100 nM in assay [2].
With `CCC1(c2cccc(-c3ccnc(C)c3)c2)C2=C(CC(C)(C)NC2=O)NC2N=NC(C)=C21` (stereo not given) [US20250313563, Compound 947798], the figures for the IC50 in assay [1] and in assay [2] were 100 to 1000 nM and under 100 nM, respectively.
With `CCC1(c2cccc(S(C)(=O)=O)c2)C2=C(CC(C)(C)NC2=O)NC2N=NC(C(F)(F)F)=C21` (stereo not given) [US20250313563, Compound 947799], the IC50 in assay [1] and in assay [2] was under 100 nM each time.
As for `CCC1(c2cccc(S(=O)(=O)C(C)C)c2)C2=C(CC(C)(C)NC2=O)NC2N=NC(C(F)(F)F)=C21` (stereo not given) [US20250313563, Compound 947800], the IC50 in assay [1] and in assay [2] was under 100 nM in each case.
`CCC1(c2cccc(-c3cnn4c3CCCC4)c2)C2=C(CC(C)(C)NC2=O)NC2N=NC(C(F)(F)F)=C21` (stereo not given) [US20250313563, Compound 947801]: the IC50 in assay [1] and in assay [2] was under 100 nM throughout.
Regarding `CC[C@]1(c2cccc(S(=O)(=O)C3CC3)c2)C2=CN=NC2NC2=C1C(=O)NC(C)(C)C2` (stereo not given in full) [US20250313563, Compound 947803], the IC50 in assay [1] and in assay [2] was under 100 nM in each case.
Regarding `CC[C@]1(c2cccc(-c3ccncc3F)c2)C2=C(CC(C)(C)NC2=O)NC2N=NC(C)=C21` (stereo not given in full) [US20250313563, Compound 947805], the figures for the IC50 in assay [1] and in assay [2] were 1000 to 5000 nM and 100 to 1000 nM, respectively.
As to `CC[C@]1(c2cccc(-c3cnn(C)c3C)c2)C2=C(CC(C)(C)NC2=O)NC2N=NC(C(F)(F)F)=C21` (stereo not given in full) [US20250313563, Compound 947807], the IC50 is 100 to 1000 nM in assay [1] and under 100 nM in assay [2].
Turning to `CC[C@]1(c2cccc(-c3cnn4c3CCCC4)c2)C2=C(CC(C)(C)NC2=O)NC2N=NC(C)=C21` (stereo not given in full) [US20250313563, Compound 947809], the IC50 was in the range of 1000 to 5000 nM in assay [1] and 100 to 1000 nM in assay [2].
Take `CC[C@@]1(c2cccc(-c3ccnc(CCO)c3)c2)C2=CN=NC2NC2=C1C(=O)CC(C)(C)C2` (stereo not given in full) [US20250313563, Compound 947810]: the IC50 in assay [1] is 100 to 1000 nM; in assay [2], under 100 nM.
